Data: US6849596B1, “Regulatory/unfolding peptides of ezrin” (priority 1999, dated 2005)

What was measured:
[1] = tested on: IgG serum antibody response to Ovalbumin; assay: Adjuvant activity: IgG serum antibody response to Ovalbumin in mice; type: in vivo; conditions: for IgG response recorded as OD: 50 micrograms Ovalbumin, two weeks, sera 1 to 100; for IgG response recorded as OD then rebased relative to 100 for each control: control = 100
Method: Adjuvant Activity of Hepreceptor Peptides Enhancing the IgG Serum Antibody Response to Ovalbumin in Mice
The IgG response in mice two weeks after an injection of 50 micrograms of Ovalbumin plus various concentrations of different hepreceptor peptides was determined. IgG response was measured by Optical Density (OD) of a 1 to 100 dilution of mouse sera in the presence of Ovalbumin.
IgG response recorded as OD
IgG response recorded as OD then data rebased relative to 100 for each control

[2] = tested on: antibody forming cells against sheep erythocytes (SRBC); assay: Antibody forming cells against sheep erythocytes (SRBC) in mice, plaque count; type: in vivo; conditions: four days after SRBC, thirty mice per data point
Method: Activity of Hepreceptor Peptides Enhancing the Antibody-Dependent Cytotoxic Response in […] to Sheep Red Blood Cells (SRBC) in Mice
The influence of Hepreceptor peptides on the activation of antibody forming cells against sheep erythocytes (SRBC) in Mice (CBA-C57B1 Fi hybrids. 2 months old, weight 18-22 grams) was determined. Mice were first injected intraperitoneally using either 0.5 ml sterile saline as a control or Hepreceptor peptides in the same volume of saline. 30 minutes after the injection of Hepreceptor peptides, a cell suspension containing 5 million SRBC was administered intraperitoneally to each mouse. Four days after the immunisation, the mice were killed by cervical dislocation and the spleens were obtained aseptically. Each spleen was homogenised in 2 ml of Medium 199, then 100 microliters of this suspension was put into 1 ml of prepared agarose in Medium 199 (stored in water bath at 48° C.), SRBC suspension was added, resulting in a final concentration of 1% agarose. The Im1 of agarose-cell mixture was agitated then transferred to petri dish to set. When the agarose became solid, the petri dish was incubated for 1 hour at 37° C. then 0.5 ml of 1-in-20 diluted guinea pig serum in Medium 199 was added on top of agarose gel as a source of complement. The incubation was continued for another 1 hour. The dishes were then visualised using an 8×binocular microscope and the number of plaques counted (each plaque equivalent to one antibody secreting mouse spleen cell). The results were expressed both as the number of antibody secreting cells per one million nucleated spleen cells and the number of antibody secreting cells per whole spleen.
Averaged data (from thirty mice per data point) of the number of antibody forming cells per one million nucleated spleen cells. The data was re-based relative to 100 for each control group.

Salmonella typhimurium = assay: Protection of mice from acute Salmonella typhimurium infection; type: in vivo; conditions: control 0%
Method: Laboratory mice (CBAxC57B1 F1 hybrids) were split into groups of five which either received 0.5 ml saline or 0.5 ml saline plus various concentrations of different Hepreceptor peptides (1, 10 or 100 nanograms). 24 hours later the mice were acutely infected with Salmonella typhimurium (10,000 or 100,000 bacteria injected intraperitoneally per mouse). The percent of each group of mice surviving after 20 days was recorded (lethally infected control animals were dead within three days of infection).
Percent of mouse group surviving after 20 days infection

[3] = tested on: human Peripheral Blood Mononuclear Cells; assay: In vitro activation of human PBMC, tritiated thymidine incorporation; type: cell-based; conditions: three days, Control 370
Method: Peripheral Blood Mononuclear Cells (PBMC) were separated from the peripheral blood of a […] donor using the standard method of fractionation in a ficoll gradient. The PBMC were suspended in culture medium containing RPMI1640 medium plus 10% fetal calf serum, 1 mM L-glutamin and antibiotics (BM). The cell suspension was placed in wells of a 96 hole microwell plate for cell cultivation, (100 microliters of suspension containing 100,000 cells per well). […] The negative control well contained BM but no peptide. The plate was incubated at 37° C. for three days then radioactive ^3H thymidine was added to a final concentration of 1 microcurie per ml. The incorporation of ^3H thymidine into the DNA of the cells was measured using a betacounter using standard procedures. The experiment was repeated twice and the results expressed as an average of the two experiments in radioactive counts per minute.

activated macrophages = assay: Induction of activated macrophages in mice (peritoneal exsudate); type: in vivo; conditions: for activity in increasing activated macrophages relative to HEP1: 1.0 microgram peptide/mouse; for Activated macrophages as a percent of total number of cells: 1.0 microgram peptide/mouse injected abdominally, after 24 hours, saline 1.9
Method: Groups of three mice (CDAxC57B1)F1 weighing 22-24 g were injected abdominally with each peptide solution of 1.0 microgram of peptide dissolved in 0.5 ml of physiological saline. After 24 hours the animals were killed using neck vertebrae dislocation and 5 ml of Hanks solution was injected into the abdomen. The abdomen was massaged for 30 seconds and then the peritoneal liquid was collected. The collected liquid was filtered using a nylon filter into siliconised tubes containing 1.5 mg/ml EDTA. The number of nucleus containing cells in […] of filtrate were then assessed under microscopic examination using a Nihon hemocytometer. The cells were pelleted by centrifugation for 5 minutes at 800 g, the pellet was resuspended in fetal calf serum, the cell suspension was dropped on to a glass microscope slide and dried then fixed in methanol and stained with Romanovski's colouring agent. Morphological analysis of the cells of the peritoneal exsudate were performed using an Opton optical microscope at 1600 magnifications. The number of lymphocytes, resting macrophages, activated macrophages, granulocytes and other cell types were assessed.

[4] = IP injection 0.01 micrograms per mouse
[5] = IP injection 0.1 micrograms per mouse
[6] = IP injection 1 microgram per mouse
[7] = IP injection 10 micrograms per mouse
[8] = 10,000 bacteria per mouse, 1 nanogram peptide per mouse 24 hours before
[9] = 10,000 bacteria per mouse, 10 nanograms peptide per mouse
[10] = 10,000 bacteria per mouse, 100 nanograms peptide per mouse
[11] = 100,000 bacteria per mouse, 1 nanogram peptide per mouse
[12] = 100,000 bacteria per mouse, 10 nanograms peptide per mouse
[13] = 100,000 bacteria per mouse, 100 nanograms peptide per mouse

Substance | IgG response recorded as OD [1, 4] | IgG response recorded as OD then rebased relative to 100 for each control [1, 4] | IgG response recorded as OD [1, 5] | IgG response recorded as OD then rebased relative to 100 for each control [1, 5] | IgG response recorded as OD [1, 6] | IgG response recorded as OD then rebased relative to 100 for each control [1, 6] | IgG response recorded as OD [1, 7] | number of antibody forming cells per one million nucleated spleen cells, re-based relative to 100 for control [2, 6] | number of antibody forming cells per one million nucleated spleen cells, re-based relative to 100 for control [2, 7] | incorporation of 3H thymidine ([3]; Peptide 0.0001 micro g/ml) | incorporation of 3H thymidine ([3]; Peptide 0.0003 micro g/ml) | incorporation of 3H thymidine ([3]; Peptide 0.001 micro g/ml) | incorporation of 3H thymidine ([3]; Peptide 0.003 micro g/ml) | incorporation of 3H thymidine ([3]; Peptide 0.01 micro g/ml) | incorporation of 3H thymidine ([3]; Peptide 0.03 micro g/ml) | incorporation of 3H thymidine ([3]; Peptide 0.1 micro g/ml) | incorporation of 3H thymidine ([3]; Peptide 0.3 micro g/ml) | incorporation of 3H thymidine ([3]; Peptide 1 micro g/ml) | incorporation of 3H thymidine ([3]; Peptide 3 micro g/ml) | incorporation of 3H thymidine ([3]; Peptide 10 micro g/ml) | also measured
EREKE (Hepreceptor peptide) [Rupe1014] | 0.232 OD | 183 | 0.231 OD | 182 | 0.477 OD | 376 | 0.508 OD | 202 | 325 | – | – | – | – | – | – | – | – | – | – | – | IgG response recorded as OD then rebased relative to 100 for each control [1, 7]: 400
EREKEQMMREKEEL (Hepreceptor peptide) [Rupe1024] | 0.250 OD | 164 | 0.262 OD | 172 | 0.489 OD | 322 | 0.445 OD | 401 | 397 | – | – | – | – | – | – | – | – | – | – | – | Percent of mouse group surviving after 20 days infection (Salmonella typhimurium; [8]): 40%; Percent of mouse group surviving after 20 days infection (Salmonella typhimurium; [9]): 40%; Percent of mouse group surviving after 20 days infection (Salmonella typhimurium; [10]): 40%; Percent of mouse group surviving after 20 days infection (Salmonella typhimurium; [11]): 0%; Percent of mouse group surviving after 20 days infection (Salmonella typhimurium; [12]): 20%; Percent of mouse group surviving after 20 days infection (Salmonella typhimurium; [13]): 40%; IgG response recorded as OD then rebased relative to 100 for each control [1, 7]: 293
KEELMLRLQDYEE (Hepreceptor peptide) [Rupe2032] | 0.509 OD | 401 | 0.606 OD | 477 | 0.327 OD | 257 | 0.203 OD | 236 | 232 | – | – | – | – | – | – | – | – | – | – | – | IgG response recorded as OD then rebased relative to 100 for each control [1, 7]: 160
KRRETVER (Hepreceptor peptide) [Rupe411] | – | – | – | – | – | – | – | – | – | 385 radioactive counts per minute | 510 radioactive counts per minute | 702 radioactive counts per minute | 598 radioactive counts per minute | 532 radioactive counts per minute | 500 radioactive counts per minute | 499 radioactive counts per minute | 486 radioactive counts per minute | 468 radioactive counts per minute | 420 radioactive counts per minute | 390 radioactive counts per minute | activity in increasing activated macrophages relative to HEP1 (activated macrophages): significantly more active than HEP1; Activated macrophages as a percent of total number of cells (activated macrophages): 5.5%
RETVEREKE (Hepreceptor peptide) [Rupe614] | – | – | – | – | – | – | – | – | – | 464 radioactive counts per minute | 503 radioactive counts per minute | 550 radioactive counts per minute | 752 radioactive counts per minute | 607 radioactive counts per minute | 538 radioactive counts per minute | 596 radioactive counts per minute | 635 radioactive counts per minute | 600 radioactive counts per minute | 499 radioactive counts per minute | 412 radioactive counts per minute | –
TEKKR (Hepreceptor peptide) [Rupe15] | – | – | – | – | – | – | – | 255 | 134 | – | – | – | – | – | – | – | – | – | – | – | Percent of mouse group surviving after 20 days infection (Salmonella typhimurium; [8]): 20%; Percent of mouse group surviving after 20 days infection (Salmonella typhimurium; [9]): 40%; Percent of mouse group surviving after 20 days infection (Salmonella typhimurium; [10]): 40%; Percent of mouse group surviving after 20 days infection (Salmonella typhimurium; [11]): 20%; Percent of mouse group surviving after 20 days infection (Salmonella typhimurium; [12]): 20%; Percent of mouse group surviving after 20 days infection (Salmonella typhimurium; [13]): 0%
TEKKRRETV (Hepreceptor peptide) [Rupe19] | – | – | – | – | – | – | – | – | – | 426 radioactive counts per minute | 602 radioactive counts per minute | 718 radioactive counts per minute | 756 radioactive counts per minute | 545 radioactive counts per minute | 586 radioactive counts per minute | 537 radioactive counts per minute | 563 radioactive counts per minute | 509 radioactive counts per minute | 502 radioactive counts per minute | 517 radioactive counts per minute | –
TEKKRRETVER (Hepreceptor peptide) [Rupe111] | – | – | – | – | – | – | – | – | – | 483 radioactive counts per minute | 483 radioactive counts per minute | 710 radioactive counts per minute | 665 radioactive counts per minute | 537 radioactive counts per minute | 642 radioactive counts per minute | 633 radioactive counts per minute | 668 radioactive counts per minute | 529 radioactive counts per minute | 486 radioactive counts per minute | 470 radioactive counts per minute | activity in increasing activated macrophages relative to HEP1 (activated macrophages): significantly more active than HEP1; Activated macrophages as a percent of total number of cells (activated macrophages): 4.3%
